Where “and” joins values, the source holds several entries; their conditions need not be identical. Equal entries are not always repeated.
Assays:
Assay type in all cases: biochemical
human plasmin [1] = target: T1, human plasmin (Homo sapiens, UniProt P00747); experiment: Direct inhibition of human plasmin, chromogenic substrate; conditions: for HS (Hill slope): Tris-HCl buffer pH 7.4, 37 °C
human plasmin [2] = target: T1, human plasmin; experiment: Michaelis-Menten kinetics of Spectrozyme PL hydrolysis by human plasmin
human plasmin [3] = target: T1, human plasmin; experiment: Protamine reversibility of plasmin inhibition by NSGM 2; conditions: plasmin treated with inhibitor 2 (200 μM), pH 7.4, 37 °C

T1 sequence (P00747 97-580 limits assumed): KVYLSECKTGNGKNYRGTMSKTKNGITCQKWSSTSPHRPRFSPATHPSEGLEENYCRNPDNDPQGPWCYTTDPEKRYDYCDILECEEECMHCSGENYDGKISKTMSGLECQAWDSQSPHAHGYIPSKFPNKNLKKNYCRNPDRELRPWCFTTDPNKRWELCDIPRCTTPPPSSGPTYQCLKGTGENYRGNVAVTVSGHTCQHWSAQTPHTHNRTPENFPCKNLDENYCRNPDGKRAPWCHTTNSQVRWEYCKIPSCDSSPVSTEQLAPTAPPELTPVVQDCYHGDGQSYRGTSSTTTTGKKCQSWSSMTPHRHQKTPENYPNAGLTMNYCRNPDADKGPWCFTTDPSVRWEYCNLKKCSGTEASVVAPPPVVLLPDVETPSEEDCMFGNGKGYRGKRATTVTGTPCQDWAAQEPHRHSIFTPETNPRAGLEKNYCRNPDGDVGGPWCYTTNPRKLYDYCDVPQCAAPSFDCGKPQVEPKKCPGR
T1 sequence (P00747 581-810 limits assumed): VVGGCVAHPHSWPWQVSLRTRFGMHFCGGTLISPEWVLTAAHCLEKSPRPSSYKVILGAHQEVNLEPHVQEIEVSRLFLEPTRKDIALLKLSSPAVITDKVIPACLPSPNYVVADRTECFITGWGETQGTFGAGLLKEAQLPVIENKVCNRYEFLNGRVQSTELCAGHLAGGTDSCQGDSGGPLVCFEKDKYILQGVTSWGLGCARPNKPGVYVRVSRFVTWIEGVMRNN

Compound	HS (Hill slope) (human plasmin [1])	also measured
O=c1c(OS(=O)(=O)[O-])c(-c2ccc(OS(=O)(=O)[O-])c(OS(=O)(=O)[O-])c2)oc2cc(OS(=O)(=O)[O-])cc(OCc3ccc(COc4cc(OS(=O)(=O)[O-])cc5oc(-c6ccc(OS(=O)(=O)[O-])c(OS(=O)(=O)[O-])c6)c(OS(=O)(=O)[O-])c(=O)c45)cc3)c12.[Na+].[Na+].[Na+].[Na+].[Na+].[Na+].[Na+].[Na+]	0.7 ± 0.1	VMAX (human plasmin [2]; [inhibitor] 1.6 μM, pH 7.4, 37 °C): 36.3 ± 2.0 mAU/min; VMAX (human plasmin [2]; [inhibitor] 8 μM): 29.0 ± 0.6 mAU/min; VMAX (human plasmin [2]; [inhibitor] 100 μM): 15.1 ± 1.0 mAU/min; VMAX (human plasmin [2]; [inhibitor] 200 μM, listed as 2): 10.4 mAU/min and 10.4 ± 0.5 mAU/min
O=c1c(O)c(-c2ccc(O)c(O)c2)oc2cc(O)cc(OCc3ccc(COc4cc(O)cc5oc(-c6ccc(O)c(O)c6)c(O)c(=O)c45)cc3)c12 [1j, 5,5′-((1,4-Phenylenebis(methylene))bis(oxy))bis(2-(3,4-dihydroxyphenyl)-3,7-dihydroxy-4H-chromen-4-one)]		fold less potent plasmin inhibition than NSGM 2 (human plasmin [1]; 1j versus 2): about 18.3 fold; VMAX (human plasmin [2]; [inhibitor] 100 μM): 51.0 ± 4.6 mAU/min; VMAX (human plasmin [2]; [inhibitor] 240 μM): 51.7 ± 3.9 mAU/min; VMAX (human plasmin [2]; [inhibitor] 400 μM): 51.3 ± 4.0 mAU/min; mechanism of plasmin inhibition (human plasmin [2]; from Michaelis-Menten kinetics): competitive; fold increase in KM (human plasmin [2]; inhibitor concentration reaching 400 μM): ~ 13.5 fold; VMAX across inhibitor concentrations (human plasmin [2]; inhibitor concentration reaching 400 μM, essentially unchanged): 50.6–51.3 mAU/min
O=c1c(OS(=O)(=O)[O-])c(-c2ccc(OS(=O)(=O)[O-])c(OS(=O)(=O)[O-])c2)oc2cc(OS(=O)(=O)[O-])cc(OCCCCOc3cc(OS(=O)(=O)[O-])cc4oc(-c5ccc(OS(=O)(=O)[O-])c(OS(=O)(=O)[O-])c5)c(OS(=O)(=O)[O-])c(=O)c34)c12.[Na+].[Na+].[Na+].[Na+].[Na+].[Na+].[Na+].[Na+] [NSGM 1]	1.0 ± 0.2	
O=c1c(OS(=O)(=O)[O-])c(-c2ccc(OS(=O)(=O)[O-])c(OS(=O)(=O)[O-])c2)oc2cc(OS(=O)(=O)[O-])cc(OCc3ccc(-c4ccc(COc5cc(OS(=O)(=O)[O-])cc6oc(-c7ccc(OS(=O)(=O)[O-])c(OS(=O)(=O)[O-])c7)c(OS(=O)(=O)[O-])c(=O)c56)cc4)cc3)c12.[Na+].[Na+].[Na+].[Na+].[Na+].[Na+].[Na+].[Na+] [NSGM 3, Sodium 4-(5-((4′-(((2-(3,4-Bis(sulfonatooxy)phenyl)-4-oxo-3,7-bis(sulfonatooxy)-4H-chromen-5-yl)oxy)methyl)-[1,1′-bi-phenyl]-4-yl)methoxy)-4-oxo-3,7-bis(sulfonatooxy)-4H-chromen-2-yl)-1,2-phenylene Bis(sulfate)]	0.8 ± 0.2	
Cc1cc(COc2cc(OS(=O)(=O)[O-])cc3oc(-c4ccc(OS(=O)(=O)[O-])c(OS(=O)(=O)[O-])c4)c(OS(=O)(=O)[O-])c(=O)c23)c(C)cc1COc1cc(OS(=O)(=O)[O-])cc2oc(-c3ccc(OS(=O)(=O)[O-])c(OS(=O)(=O)[O-])c3)c(OS(=O)(=O)[O-])c(=O)c12.[Na+].[Na+].[Na+].[Na+].[Na+].[Na+].[Na+].[Na+] [NSGM 4, Sodium 4-(5-((4-(((2-(3,4-Bis(sulfonatooxy)phenyl)-4-oxo-3,7-bis(sulfonatooxy)-4H-chromen-5-yl)oxy)methyl)-2,5-dimethylbenzyl)oxy)-4-oxo-3,7-bis(sulfonatooxy)-4H-chromen-2-yl)-1,2-phenylene Bis(sulfate)]	0.7 ± 0.1	
O=c1c(OS(=O)(=O)[O-])c(-c2ccc(OS(=O)(=O)[O-])c(OS(=O)(=O)[O-])c2)oc2cc(OS(=O)(=O)[O-])cc(OCc3cccc(COc4cc(OS(=O)(=O)[O-])cc5oc(-c6ccc(OS(=O)(=O)[O-])c(OS(=O)(=O)[O-])c6)c(OS(=O)(=O)[O-])c(=O)c45)c3)c12.[Na+].[Na+].[Na+].[Na+].[Na+].[Na+].[Na+].[Na+] [NSGM 5, Sodium 4-(5-((3-(((2-(3,4-Bis(sulfonatooxy)phenyl)-4-oxo-3,7-bis(sulfonatooxy)-4H-chromen-5-yl)oxy)methyl)benzyl)-oxy)-4-oxo-3,7-bis(sulfonatooxy)-4H-chromen-2-yl)-1,2-phenylene Bis(sulfate)]	0.6 ± 0.1	
O=c1c(OS(=O)(=O)[O-])c(-c2ccc(OS(=O)(=O)[O-])c(OS(=O)(=O)[O-])c2)oc2cc(OS(=O)(=O)[O-])cc(OCc3cccc(COc4cc(OS(=O)(=O)[O-])cc5oc(-c6ccc(OS(=O)(=O)[O-])c(OS(=O)(=O)[O-])c6)c(OS(=O)(=O)[O-])c(=O)c45)n3)c12.[Na+].[Na+].[Na+].[Na+].[Na+].[Na+].[Na+].[Na+] [NSGM 6, Sodium 4-(5-((6-(((2-(3,4-Bis(sulfonatooxy)phenyl)-4-oxo-3,7-bis(sulfonatooxy)-4H-chromen-5-yl)oxy)methyl)pyridin-2-yl)methoxy)-4-oxo-3,7-bis(sulfonatooxy)-4H-chromen-2-yl)-1,2-phenylene Bis(sulfate)]	0.8 ± 0.2	
O=c1cc(-c2ccc(OS(=O)(=O)[O-])cc2)oc2cc(OS(=O)(=O)[O-])cc(OCCOc3cc(OS(=O)(=O)[O-])cc4oc(-c5ccc(OS(=O)(=O)[O-])cc5)cc(=O)c34)c12.[Na+].[Na+].[Na+].[Na+] [NSGM 7, Sodium 4-Oxo-5-(2-((4-oxo-7-(sulfonatooxy)-2-(4-(sulfonatooxy)phenyl)-4H-chromen-5-yl)oxy)ethoxy)-2-(4-(sulfonatooxy)phenyl)-4H-chromen-7-yl Sulfate]	2.4 ± 0.3	
O=c1cc(-c2ccc(OS(=O)(=O)[O-])cc2)oc2cc(OS(=O)(=O)[O-])cc(OCCCCOc3cc(OS(=O)(=O)[O-])cc4oc(-c5ccc(OS(=O)(=O)[O-])cc5)cc(=O)c34)c12.[Na+].[Na+].[Na+].[Na+] [NSGM 9, Sodium 4-Oxo-5-(4-((4-oxo-7-(sulfonatooxy)-2-(4-(sulfonatooxy)phenyl)-4H-chromen-5-yl)oxy)butoxy)-2-(4-(sulfonatooxy)phenyl)-4H-chromen-7-yl Sulfate]	1.8 ± 0.3	
protamine		efficacy of restoring plasmin activity (human plasmin [3]): ~ 100%

The next lines start with results.

HS (Hill slope) (human plasmin [1])	Compound	also measured
0.9 ± 0.2	O=c1cc(-c2ccc(OS(=O)(=O)[O-])cc2)oc2cc(OS(=O)(=O)[O-])cc(OC/C=C/COc3cc(OS(=O)(=O)[O-])cc4oc(-c5ccc(OS(=O)(=O)[O-])cc5)cc(=O)c34)c12.[Na+].[Na+].[Na+].[Na+] [NSGM 10, Sodium (E)-4-Oxo-5-((4-((4-oxo-7-(sulfonatooxy)-2-(4-(sulfonatooxy)phenyl)-4H-chromen-5-yl)oxy)but-2-en-1-yl)-oxy)-2-(4-(sulfonatooxy)phenyl)-4H-chromen-7-yl Sulfate]	
2.4 ± 0.3	O=c1cc(-c2ccc(OS(=O)(=O)[O-])cc2)oc2cc(OS(=O)(=O)[O-])cc(OCc3ccc(COc4cc(OS(=O)(=O)[O-])cc5oc(-c6ccc(OS(=O)(=O)[O-])cc6)cc(=O)c45)cc3)c12.[Na+].[Na+].[Na+].[Na+] [NSGM 11, Sodium 4-Oxo-5-((4-(((4-oxo-7-(sulfonatooxy)-2-(4-(sulfonatooxy)phenyl)-4H-chromen-5-yl)oxy)methyl)benzyl)-oxy)-2-(4-(sulfonatooxy)phenyl)-4H-chromen-7-yl Sulfate]	
1.1 ± 0.1	O=c1cc(-c2ccc(OS(=O)(=O)[O-])cc2)oc2cc(OS(=O)(=O)[O-])cc(OCc3ccc(-c4ccc(COc5cc(OS(=O)(=O)[O-])cc6oc(-c7ccc(OS(=O)(=O)[O-])cc7)cc(=O)c56)cc4)cc3)c12.[Na+].[Na+].[Na+].[Na+] [NSGM 12, Sodium 4-Oxo-5-((4′-(((4-oxo-7-(sulfonatooxy)-2-(4-(sulfonatooxy)phenyl)-4H-chromen-5-yl)oxy)methyl)-[1,1′-bi-phenyl]-4-yl)methoxy)-2-(4-(sulfonatooxy)phenyl)-4H-chromen-7-yl Sulfate]	
2.0 ± 0.1	Cc1cc(COc2cc(OS(=O)(=O)[O-])cc3oc(-c4ccc(OS(=O)(=O)[O-])cc4)cc(=O)c23)c(C)cc1COc1cc(OS(=O)(=O)[O-])cc2oc(-c3ccc(OS(=O)(=O)[O-])cc3)cc(=O)c12.[Na+].[Na+].[Na+].[Na+] [NSGM 13, Sodium 5-((2,5-Dimethyl-4-(((4-oxo-7-(sulfonatooxy)-2-(4-(sulfonatooxy)phenyl)-4H-chromen-5-yl)oxy)methyl)benzyl)-oxy)-4-oxo-2-(4-(sulfonatooxy)phenyl)-4H-chromen-7-yl Sulfate]	
2.3 ± 0.5	O=c1cc(-c2ccc(OS(=O)(=O)[O-])cc2)oc2cc(OS(=O)(=O)[O-])cc(OCc3cccc(COc4cc(OS(=O)(=O)[O-])cc5oc(-c6ccc(OS(=O)(=O)[O-])cc6)cc(=O)c45)c3)c12.[Na+].[Na+].[Na+].[Na+] [NSGM 14, Sodium 4-Oxo-5-((3-(((4-oxo-7-(sulfonatooxy)-2-(4-(sulfonatooxy)phenyl)-4H-chromen-5-yl)oxy)methyl)benzyl)-oxy)-2-(4-(sulfonatooxy)phenyl)-4H-chromen-7-yl Sulfate]	
1.2 ± 0.2	O=c1cc(-c2ccc(OS(=O)(=O)[O-])cc2)oc2cc(OS(=O)(=O)[O-])cc(OCc3cccc(COc4cc(OS(=O)(=O)[O-])cc5oc(-c6ccc(OS(=O)(=O)[O-])cc6)cc(=O)c45)n3)c12.[Na+].[Na+].[Na+].[Na+] [NSGM 15, Sodium 4-Oxo-5-((6-(((4-oxo-7-(sulfonatooxy)-2-(4-(sulfonatooxy)phenyl)-4H-chromen-5-yl)oxy)methyl)pyridin-2-yl)methoxy)-2-(4-(sulfonatooxy)phenyl)-4H-chromen-7-yl Sulfate]	
0.9 ± 0.1	O=c1cc(-c2ccc(OS(=O)(=O)[O-])cc2)oc2cc(OS(=O)(=O)[O-])cc(OCc3ccc(COc4cc(OS(=O)(=O)[O-])cc5oc(-c6ccc(OS(=O)(=O)[O-])c(OS(=O)(=O)[O-])c6)c(OS(=O)(=O)[O-])c(=O)c45)cc3)c12.[Na+].[Na+].[Na+].[Na+].[Na+].[Na+] [NSGM 16, Sodium 4-(4-Oxo-5-((4-(((4-oxo-7-(sulfonatooxy)-2-(4-(sulfonatooxy)phenyl)-4H-chromen-5-yl)oxy)methyl)benzyl)-oxy)-3,7-bis(sulfonatooxy)-4H-chromen-2-yl)-1,2-phenylene Bis(sulfate)]	

Reference: article PMC8788145 (Journal of medicinal chemistry, 2017)
